Where two headings read alike, the source gives them in different places. Values belong to the molecule of their own block, whether it stands above or below them. Starred links: 1 amine or outer side, 2 acyl side, 3 side chain; linkers in the order of their positions; H or OH if unused. Non-standard residues stand in square brackets, D forms with d. Residues, ends and D or L forms follow the SMILES beside them. Groups on a side chain read outwards from the residue. *: point of attachment. X1 = CN(C)c1ccc2c(-c3ccc(C(=O)*)cc3C(=O)[O-])c3ccc(=[N+](C)C)cc-3oc2c1; X4 = NCCCCNC(=O)N=C(N)NCCC[C@H](N[*:1])C(=O)[*:2]; dTyr(β,β-Me2) = CC(C)(c1ccc(O)cc1)[C@@H](N)C(=O)O; Tyr(β,β-Me2) = CC(C)(c1ccc(O)cc1)[C@H](N)C(=O)O; Gly(piperidin-4-yl) = N[C@H](C(=O)O)C1CCNCC1; X2 = O=C(CCc1cn(CCCN[*:1])nn1)[*:2]; Pent4ynoyl = C#CCCC(=O)*; Pra = C#CC[C@H](N)C(=O)O; NH(CH2)4NH2 = NCCCCN*; CO = O=C([*:1])[*:2]; Propionyl = CCC(=O)*; GABA = NCCCC(=O)O
How the values were obtained:
NTS1R [1] = target: T1, NTS1R (Homo sapiens, UniProt P30989); test: Radioligand competition binding with [^3H]UR-MK300 at intact HT-29 colon carcinoma cells; settings: [^3H]UR-MK300, intact HT-29 cells, 23 °C; read-out: NTS1R pKi ± SEM (converted)
Description: NTS1R binding affinities were determined in a reported competition binding assay[13] using intact hNTS1R-expressing HT-29 colon carcinoma cells and [^3H]UR-MK300 (structure see Figure 1A) as radioligand (competition binding curves shown in Figure S4, Supporting Information).
NTS1R radioligand competition binding experiments with [^3H]UR-MK300 (molar activity: 2.41 TBq/mmol) and the peptides 6–9, 10a, 10b, 13–16, and 18 were performed with intact hNTS1R-expressing human HT-29 colon carcinoma cells at 23 ± 1 °C using a previously reported protocol.[13] […] Cells were seeded one day before the assay, yielding a confluency of at least 90% on the day of the experiment. Total binding data (including total binding in the absence of competitor) were plotted as dpm values against log(concentration competitor) and analyzed by a four-parameter logistic equation (log(inhibitor) vs response–variable slope, GraphPad Prism 5, GraphPad Software, San Diego, CA) to obtain pIC50 values. Individual pIC50 values were converted to pKi values according to the Cheng–Prusoff equation[60] (logarithmic form). To plot average data from individual binding experiments, data were normalized (100% = “top” of the four-parameter logistic fit, 0% = unspecifically bound radioligand).

NTS1R [2] = target: T1, NTS1R; test: Radiochemical competition binding, adherent CHO-hNTS1R cells; settings: labeled probe [^3H]13 (1.3 nM), 90 min, 23 °C
NTS1R [3] = target: T1, NTS1R; test: Radiochemical competition binding with [^3H]13 at membranes of CHO-hNTS1R cells; settings: labeled probe [^3H]13 ([…]), 50 μM GppNHp, 23 °C
NTS1R [4] = target: T1, NTS1R; test: Radiochemical competition binding, suspended CHO-hNTS1R cells; settings: labeled probe [^3H]13 (1.8 nM), 90 min, 23 °C
NTS1R [5] = target: T1, NTS1R; test: Flow cytometric (FC) competition binding, suspended CHO-hNTS1R cells; settings: labeled probe 13 (2.6 nM), 90 min, 23 °C
Description: Flow cytometry-based NTS1R binding studies were performed with intact CHO-hNTS1R (all kind of experiments) and HT-29 cells (only saturation binding) using a BD FACSCanto II (Becton Dickinson, Heidelberg, Germany), equipped with an argon laser (488 nm) and a red diode laser (640 nm), and a BD High Throughput Sampler (HTS unit) for microtiter plates. Saturation and competition binding experiments were performed in triplicate in 96-well polypropylene plates (Brand 701330, Wertheim, Germany) using the HTS unit for sample injection. Association and dissociation experiments were performed in duplicate in 5 mL polypropylene tubes (VWR, Radnor) using the standard injection port of the flow cytometer. The following gain settings for forward and sideward scatter were applied: FSC, 0 V; SSC, 252 V. Fluorescence was recorded using the PE-channel (excitation: 488 nm, emission: 585 ± 21) nm with a PMT gain of 330–400 V. For measurements using the HTS unit, 45 μL of the sample were injected with a speed of 1.5 μL/s. For measurements, requiring the use of the standard injection port, the medium flow rate ([…]) was used. Measurements were stopped after 30 s (HTS unit) or after counting of 500–3000 gated events (standard injection port). […]
A 96-well polypropylene plate was prefilled with 200 μL of cell suspension. […] Data were analyzed as described for HCI competition binding experiments.

NTS1R [6] = target: T1, NTS1R; test: High-content imaging (HCI) competition binding, adherent CHO-hNTS1R cells; settings: labeled probe 13 ([…]), 90 min, 23 °C
Description: The final volume per well was 200 μL. […] All experiments were performed in triplicate.

NTS1R [7] = settings: reported binding data, cited from earlier work
NTS1R [8] = target: T1, NTS1R; test: Fluorescence anisotropy (FA) competition binding at hNTS1R-displaying BBVs; design: NlucC (C-terminal fragment of nanoluciferase, 11 amino acids) (C); made in house; host or cells: Sf9 insect cells, baculovirus (pIMACE-CMVintP10-hNTS1R-Nluc, DH10MultiBac); budded baculovirus particles; settings: 27 °C
NTS1R [9] = target: T1, NTS1R; test: Fura-2 Ca^2+ assay at CHO-hNTS1R cells; assay type: cell-based; settings: agonist mode, read-out: NTS1R pEC50 ± SEM (converted)

T1 sequence (P30989 whole entry): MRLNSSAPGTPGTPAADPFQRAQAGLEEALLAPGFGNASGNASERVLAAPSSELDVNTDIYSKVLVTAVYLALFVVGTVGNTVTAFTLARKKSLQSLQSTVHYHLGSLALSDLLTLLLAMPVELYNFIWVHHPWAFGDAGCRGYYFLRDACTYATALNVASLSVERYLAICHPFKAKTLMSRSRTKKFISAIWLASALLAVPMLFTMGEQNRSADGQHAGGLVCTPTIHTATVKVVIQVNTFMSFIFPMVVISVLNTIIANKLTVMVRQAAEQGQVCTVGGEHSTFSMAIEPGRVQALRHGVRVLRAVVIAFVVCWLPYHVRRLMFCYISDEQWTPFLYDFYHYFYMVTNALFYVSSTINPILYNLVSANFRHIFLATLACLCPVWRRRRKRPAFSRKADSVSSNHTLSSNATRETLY

Molecule: C#CCCC(=O)N[C@H](C(=O)N1CCC[C@H]1C(=O)N[C@@H](CCCNC(N)=NC(=O)NCCCCN)C(=O)N[C@@H](CCCNC(=N)N)C(=O)N1CCC[C@H]1C(=O)N[C@@H](Cc1ccc(O)cc1)C(=O)N[C@H](C(=O)N[C@@H](CC(C)C)C(=O)O)[C@@H](C)CC)C1CCNCC1 [Compound 6, N^α-(Pent-4-ynoyl)-2-(piperidin-4-yl)-Gly-Pro-N^ω-[(4-aminobutyl)aminocarbonyl]Arg-Arg-Pro-Tyr-Ile-Leu Tetrakis(hydrotrifluoroacetate)] (Pent4ynoyl-[Gly(piperidin-4-yl)]P[X4]RPYIL-OH)
Ki (NTS1R [1]): 603 pM

Molecule: C#CCCC(=O)N[C@H](C(=O)N1CCC[C@H]1C(=O)N[C@@H](CCCNC(N)=NC(=O)NCCCCN)C(=O)N[C@@H](CCCNC(=N)N)C(=O)N1CCC[C@H]1C(=O)N[C@@H](C(=O)N[C@H](C(=O)N[C@@H](CC(C)C)C(=O)O)[C@@H](C)CC)C(C)(C)c1ccc(O)cc1)C1CCNCC1 [Compound 10b, N^α-(Pent-4-ynoyl)-2-(piperidin-4-yl)-Gly-Pro-N^ω-[(4-aminobutyl)aminocarbonyl]Arg-Arg-Pro-β,β-dimethyl-D-Tyr-Ile-Leu Tetrakis(hydrotrifluoroacetate)] (Pent4ynoyl-[Gly(piperidin-4-yl)]P[X4]RP[dTyr(β,β-Me2)]IL-OH)
Ki (NTS1R [1]): 135000 pM

RC adherent cells: pKi ± SEM (NTS1R [2]): 8.31 ± 0.18
pKi ± SEM (NTS1R [3]): 9.56 ± 0.06
RC cell suspension: pKi ± SEM (NTS1R [4]): 8.19 ± 0.16
FC: pKi ± SEM (NTS1R [5]): 9.24 ± 0.15
HCI: pKi ± SEM (NTS1R [6]): 9.42 ± 0.21
FA: pKi ± SEM (NTS1R [8]; labeled probe 13 (0.3 nM), NTS1R-BBVs, 90 min): 8.97
FA: pKi (NTS1R [8]; labeled probe 18, NTS1R-BBVs): 9.19
Molecule: SR142948
Ki (NTS1R [7]; ref 13): 1100 pM
Ki (NTS1R [7]; ref 52): 1000 pM

Molecule: C#CC[C@H](NC(=O)CCCN)C(=O)N[C@H](C(=O)N1CCC[C@H]1C(=O)N[C@@H](CCCNC(=N)N)C(=O)N[C@@H](CCCNC(=N)N)C(=O)N1CCC[C@H]1C(=O)N[C@@H](Cc1ccc(O)cc1)C(=O)N[C@H](C(=O)N[C@@H](CC(C)C)C(=O)O)[C@@H](C)CC)C1CCNCC1 [Compound 9] (H-[GABA][Pra][Gly(piperidin-4-yl)]PRRPYIL-OH)
Ki (NTS1R [1]): 302 pM

Molecule: CCC(=O)NCCCC(=O)N[C@@H](Cc1cn(CCCNC(=O)c2ccc(-c3c4ccc(=[N+](C)C)cc-4oc4cc(N(C)C)ccc34)c(C(=O)[O-])c2)nn1)C(=O)N[C@H](C(=O)N1CCC[C@H]1C(=O)N[C@@H](CCCNC(=N)N)C(=O)N[C@@H](CCCNC(=N)N)C(=O)N1CCC[C@H]1C(=O)N[C@@H](Cc1ccc(O)cc1)C(=O)N[C@H](C(=O)N[C@@H](CC(C)C)C(=O)O)[C@@H](C)CC)C1CCNCC1 [Compound 16]
Ki (NTS1R [1]): 724 pM

Molecule: C#CCCC(=O)N[C@H](C(=O)N1CCC[C@H]1C(=O)N[C@@H](CCCNC(=N)NC(=O)NCCCCN)C(=O)N[C@@H](CCCNC(=N)N)C(=O)N1CCC[C@H]1C(=O)N[C@H](C(=O)N[C@H](C(=O)N[C@@H](CC(C)C)C(=O)O)[C@@H](C)CC)C(C)(C)c1ccc(O)cc1)C1CCNCC1 [Compound 10a, N^α-(Pent-4-ynoyl)-2-(piperidin-4-yl)-Gly-Pro-N^ω-[(4-aminobutyl)aminocarbonyl]Arg-Arg-Pro-β,β-dimethyl-L-Tyr-Ile-Leu Tetrakis(hydrotrifluoroacetate)] (Pent4ynoyl-[Gly(piperidin-4-yl)]PR([CO-NH(CH2)4NH2])RP[Tyr(β,β-Me2)]IL-OH)
EC50 (NTS1R [9]): 316 pM

Molecule: CCC(=O)NCCCC[C@@H](NC(=O)CCc1cn(CCCNC(=O)c2ccc(-c3c4ccc(=[N+](C)C)cc-4oc4cc(N(C)C)ccc34)c(C(=O)[O-])c2)nn1)C(=O)N1CCC[C@H]1C(=O)N[C@@H](CCCNC(=N)N)C(=O)N[C@@H](CCCNC(=N)N)C(=O)N1CCC[C@H]1C(=O)N[C@@H](Cc1ccc(O)cc1)C(=O)N[C@H](C(=O)N[C@@H](CC(C)C)C(=O)O)[C@@H](C)CC [Compound 15] (X1-[X2][dK](Propionyl)PRRPYIL-OH)
Ki (NTS1R [1]): 2950 pM

— PMC11440508, “Dually Labeled Neurotensin NTS1R Ligands for Probing Radiochemical and Fluorescence-Based Binding Assays” (Journal of Medicinal Chemistry, 2024)
